Reference: patent US10035800B2 (AbbVie Inc., priority 2013, dated 2018)

What was measured:
[1] = biological target: T1, BRD4 (BDI_K57-E168) (Homo sapiens, UniProt O60885); assay: TR-FRET bromodomain binding assay, first bromodomain of BRD4; conditions: TR-FRET assay protocol G (compound 0.92 μM-15 pM); 100 nM probe
T1 construct: BD1: amino acids K57-E168; made in house
Method in brief: (§1)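 TR-FRET displacement of an Alexa647-labelled BET-inhibitor probe from His-tagged BRD4 BD1 or BD2 (8 nM), read via 1 nM Eu-anti-His antibody after 1 h at room temperature. Buffer was 20 mM sodium phosphate pH 6.0 with 2% DMSO. Probe was 100 nM for BDI and 30 nM for BDII. IC50 came from 4-parameter fits, and Ki from IC50, probe Kd and probe concentration.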

[2] = system: breast cancer cell line MX-1; assay: MX-1 cell line proliferation assay; format: cell-based; conditions: MX-1 cells, 3-day proliferation assay, Cell Titer Glo; read-out: Cellular proliferation: EC50
Method in brief: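 MX-1 cells at 5000/well, in RPMI 1640 with 10% FBS, were exposed to compounds for 3 days. Final concentrations ranged 3 μM–0.1 nM or 1 μM–0.03 nM, in 3-fold steps. Cell Titer Glo luminescence was normalized to DMSO and fitted sigmoidally for EC50; overall MSR 2.1.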

[3] = biological target: T2, BRD4 (BDII_E352-M457) (Homo sapiens, UniProt O60885); assay: TR-FRET bromodomain binding assay, second bromodomain of BRD4; conditions: TR-FRET assay protocol G (compound 0.92 μM-15 pM); 30 nM probe
T2 construct: protocol; made in house
Method in brief: as §1

| Compound | Ki [1] [µM] | EC50 [2] [µM] | Ki [3] [µM] |
| --- | --- | --- | --- |
| Cn1cc2c3c(c[nH]c3c1=O)C(CCNC(=O)OCc1ccccc1)N(c1ccc(F)cc1F)c1ccc(CS(C)(=O)=O)cc1-2 (racemic) [Example 229, benzyl (2-(4-(2,4-difluorophenyl)-10-methyl-7-((methylsulfonyl)methyl)-11-oxo-3,4,10,11-tetrahydro-1H-1,4,10-triazadibenzo[cd,f]azulen-3-yl)ethyl)carbamate] | 0.00411 | 0.0412 | 0.00196 |
| Cn1cc2c3c(c[nH]c3c1=O)CN(Cc1ccccc1)c1ccc(CS(C)(=O)=O)cc1-2 [Example 247, 4-benzyl-10-methyl-7-((methylsulfonyl)methyl)-3,4-dihydro-1H-1,4,10-triazadibenzo[cd,f]azulen-11(10H)-one] | 0.00222 | 0.00494 | 0.00242 |
| CC(C)c1ccc(NC(=O)N2Cc3c[nH]c4c(=O)n(C)cc(c34)-c3cc(CS(C)(=O)=O)ccc32)cc1 [Example 69, N-(4-isopropylphenyl)-10-methyl-7-((methylsulfonyl)methyl)-11-oxo-10,11-dihydro-1H-1,4,10-triazadibenzo[cd,f]azulene-4(3H)-carboxamide] | 0.00325 | 0.0431 | 0.00324 |
| Cn1cc2c3c(c[nH]c3c1=O)C(Cn1ccccc1=O)N(c1ccc(F)cc1F)c1ccc(CS(C)(=O)=O)cc1-2 (single isomer, unassigned) [Example 252] | 0.0161 | 0.108 | 0.00224 |
| CCNC(=O)c1[nH]c2c(=O)n(C)cc3c2c1C(C(=O)OCC)N(c1ccc(F)cc1F)c1ccc(CS(C)(=O)=O)cc1-3 (stereo not drawn) [Example 239, ethyl 4-(2,4-difluorophenyl)-2-(ethylcarbamoyl)-10-methyl-7-((methylsulfonyl)methyl)-11-oxo-3,4,10,11-tetrahydro-1H-1,4,10-triazadibenzo[cd,f]azulene-3-carboxylate] | 0.0319 | 0.294 | 0.00212 |
| Cn1cc2c3c(c[nH]c3c1=O)CN(Cc1ccccn1)c1ccc(CS(C)(=O)=O)cc1-2 [Example 249, 10-methyl-7-((methylsulfonyl)methyl)-4-(pyridin-2-ylmethyl)-3,4-dihydro-1H-1,4,10-triazadibenzo[cd,f]azulen-11(10H)-one] | 0.0061 | 0.0177 | 0.0191 |
| COC(=O)NC1CCC(N2Cc3c[nH]c4c(=O)n(C)cc(c34)-c3cc(CS(C)(=O)=O)ccc32)CC1 (stereo not drawn) [Example 225, methyl ((trans)-4-(10-methyl-7-((methylsulfonyl)methyl)-11-oxo-10,11-dihydro-1H-1,4,10-triazadibenzo[cd,f]azulen-4(3H)-yl)cyclohexyl)carbamate] | 0.00325 | 0.0122 | 0.00239 |
| N-(4-(4-fluorophenyl)-10-methyl-11-oxo-3,4,10,11-tetrahydro-1H-1,4,5,10-tetraazadibenzo[cd,f]azulen-7-yl)ethanesulfonamide [Example 22] | 0.000875 | 0.00171 | 0.00095 |
| COC(=O)CNC(=O)C1c2c[nH]c3c(=O)n(C)cc(c23)-c2cc(CS(C)(=O)=O)ccc2N1c1ccc(F)cc1F (stereo not drawn) [Example 155, methyl 2-(4-(2,4-difluorophenyl)-10-methyl-7-((methylsulfonyl)methyl)-11-oxo-3,4,10,11-tetrahydro-1H-1,4,10-triazadibenzo[cd,f]azulene-3-carboxamido)acetate] | 0.0427 | 0.349 | 0.0478 |
| 1-((4-(2,4-difluorophenyl)-10-methyl-7-((methylsulfonyl)methyl)-11-oxo-3,4,10,11-tetrahydro-1H-1,4,10-triazadibenzo[cd,f]azulen-3-yl)methyl)-3-phenylurea [Example 138] | 0.0225 | 0.256 | 0.00194 |
| Cn1cc2c3c(c[nH]c3c1=O)CN(C(=O)Oc1ccc3ccccc3c1)c1ccc(CS(C)(=O)=O)cc1-2 [Example 90, naphthalen-2-yl 10-methyl-7-((methylsulfonyl)methyl)-11-oxo-10,11-dihydro-1H-1,4,10-triazadibenzo[cd,f]azulene-4(3H)-carboxylate] | 0.00132 | 0.0306 | 0.00201 |

Further compounds by falling Ki [1], results first:

| Ki [1] [µM] | EC50 [2] [µM] | Ki [3] [µM] | Compound |
| --- | --- | --- | --- |
| 0.108 | 0.363 | 0.00848 | Cn1cc2c3c(c[nH]c3c1=O)C(c1ccccn1)N(c1ccc(F)cc1F)c1ccc(CS(C)(=O)=O)cc1-2 (stereo not drawn) [Example 232, 4-(2,4-difluorophenyl)-10-methyl-7-((methylsulfonyl)methyl)-3-(pyridin-2-yl)-3,4-dihydro-1H-1,4,10-triazadibenzo[cd,f]azulen-11(10H)-one] |
| 0.0468 | 0.214 | 0.0421 | Cn1cc2c3c(c[nH]c3c1=O)C(C(=O)NCCc1ccccc1)N(c1ccc(F)cc1F)c1ccc(CS(C)(=O)=O)cc1-2 (stereo not drawn) [Example 156, 4-(2,4-difluorophenyl)-10-methyl-7-((methylsulfonyl)methyl)-11-oxo-N-phenethyl-3,4,10,11-tetrahydro-1H-1,4,10-triazadibenzo[cd,f]azulene-3-carboxamide] |
| 0.0399 | 0.301 | 0.00476 | Cn1cc2c3c(c[nH]c3c1=O)C(CC(C)(C)C)N(c1ccc(F)cc1F)c1ccc(CS(C)(=O)=O)cc1-2 (stereo not drawn) [Example 219, 4-(2,4-difluorophenyl)-10-methyl-7-((methylsulfonyl)methyl)-3-neopentyl-3,4-dihydro-1H-1,4,10-triazadibenzo[cd,f]azulen-11(10H)-one] |
| 0.0133 | 0.979 | 0.00112 | COC(=O)CCC1c2c[nH]c3c(=O)n(C)cc(c23)-c2cc(CS(C)(=O)=O)ccc2N1c1ccc(F)cc1F (stereo not drawn) [Example 82, methyl 3-(4-(2,4-difluorophenyl)-10-methyl-7-((methylsulfonyl)methyl)-11-oxo-3,4,10,11-tetrahydro-1H-1,4,10-triazadibenzo[cd,f]azulen-3-yl)propanoate] |
| 0.00419 | 0.0283 | 0.0102 | COCC(C)N1Cc2c[nH]c3c(=O)n(C)cc(c23)-c2cc(CS(C)(=O)=O)ccc21 (stereo not drawn) [Example 185, 4-(1-methoxypropan-2-yl)-10-methyl-7-((methylsulfonyl)methyl)-3,4-dihydro-1H-1,4,10-triazadibenzo[cd,f]azulen-11(10H)-one] |
| 0.00392 | 0.141 | 0.00375 | CCNC(=O)N1Cc2c[nH]c3c(=O)n(C)cc(c23)-c2cc(CS(C)(=O)=O)ccc21 [Example 45, N-ethyl-10-methyl-7-((methylsulfonyl)methyl)-11-oxo-10,11-dihydro-1H-1,4,10-triazadibenzo[cd,f]azulene-4(3H)-carboxamide] |
| 0.00261 | 0.0487 | 0.00247 | Cn1cc2c3c(c[nH]c3c1=O)CN(C(=O)NC1CCCC1)c1ccc(CS(C)(=O)=O)cc1-2 [Example 44, N-cyclopentyl-10-methyl-7-((methylsulfonyl)methyl)-11-oxo-10,11-dihydro-1H-1,4,10-triazadibenzo[cd,f]azulene-4(3H)-carboxamide] |
| 0.00218 | 0.0141 | 0.00253 | COc1ccccc1OC(=O)N1Cc2c[nH]c3c(=O)n(C)cc(c23)-c2cc(CS(C)(=O)=O)ccc21 [Example 95, 2-methoxyphenyl 10-methyl-7-((methylsulfonyl)methyl)-11-oxo-10,11-dihydro-1H-1,4,10-triazadibenzo[cd,f]azulene-4(3H)-carboxylate] |
